Measurements: patent publication US10100010B1, “4-methoxy pyrrole derivatives or salts thereof and pharmaceutical composition comprising the same” (Daewoong Pharmaceutical Co., Ltd., priority 2015, dated 2018)
Structures can show the parent of a compound that is named as a salt.

What was measured:
Format in all cases: cell-based
M2 = molecular target: T1, M2 (Homo sapiens, UniProt P08172); assay: GPCR Calcium Flux assay (FLIPR tetra, Eurofins), M2; details: for inhibition at 10 µM: single concentration of 10 uM, read-out: inhibition rate (%) M2
T1 sequence (P08172 1-466): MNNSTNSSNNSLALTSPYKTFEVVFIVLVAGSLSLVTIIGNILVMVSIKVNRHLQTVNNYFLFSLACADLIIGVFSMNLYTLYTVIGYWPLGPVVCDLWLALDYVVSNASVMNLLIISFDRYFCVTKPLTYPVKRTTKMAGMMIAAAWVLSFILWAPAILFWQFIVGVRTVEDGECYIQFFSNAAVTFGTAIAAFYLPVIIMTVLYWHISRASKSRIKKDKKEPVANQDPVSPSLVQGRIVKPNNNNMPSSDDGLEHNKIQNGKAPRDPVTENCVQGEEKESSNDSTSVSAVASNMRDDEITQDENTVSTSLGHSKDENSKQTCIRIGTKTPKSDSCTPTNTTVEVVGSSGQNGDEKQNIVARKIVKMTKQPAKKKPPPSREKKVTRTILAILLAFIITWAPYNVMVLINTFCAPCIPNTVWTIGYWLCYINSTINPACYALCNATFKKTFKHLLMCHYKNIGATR
Experimental: (§1) In order to confirm whether the compounds prepared in the above Examples act as an agonist or antagonist against GPCR Target, Calcium Flux assay was performed in an assay plate in which the compounds prepared in the Examples, vehicle controls, and reference compounds were added, using a Fluorometric imaging plate reader (FLIPR tetra) equipment.
(§2) Calcium Flux assay was evaluated by entrusting the GPCR profiler assay in Safety panel assays with Eurofins. By using the Fluo-8AM calcium dye, excitation was measured at a wavelength in the range of 470 to 495 nm and Emission was measured at a wavelength in the range of 515-575 nm. GPCR Assay Buffer for Calcium Flux assay was prepared by adding 20 mM of HEPES and 2.5 mM of Probenecid to Hanks Balanced Salt Solution (HBSS) to have pH 7.4. The Compounds of Examples for evaluation of the GPCR were diluted with DMSO at a concentration of 10 mM to make a stock and then prepared by diluting in the GPCR Assay Buffer at the concentration equivalent to three times the final concentration. First, for the evaluation of GPCRs, the inhibitory activity of the compounds of the Examples was evaluated at a single concentration of 10 uM, and then the respective selected targets were four fold-diluted from 10 uM to the low side to calculate 50% inhibitory concentration (IC50), prepared at the total 8 concentrations of 10, 2.5, 0.62, 0.15, 0.04, 0.01, 0.0024, 0.0006 uM, and Calcium Flux assay for GPCR was conducted. In order to evaluate the agonist and antagonist, % inhibition rate against GPCR activity before and after treatment of the compounds and the inhibitory activity of the compounds of the Examples were determined.
(§3) As a result, when the efficacy of […] and acetylcholine of the compounds prepared in the Examples was 100%, the inhibition rate (%) at a single concentration of 10 uM was evaluated and shown in Table 8.

5-HT2A = 5-HT2A (Homo sapiens, UniProt P28223); assay: GPCR Calcium Flux assay (FLIPR tetra, Eurofins), 5-HT2A; details: for inhibition at 10 µM: single concentration of 10 uM, read-out: inhibition rate (%) 5-HT2A; for IC50: 8 concentrations 10 to 0.0006 uM, read-out: 50% inhibitory concentration (IC50) 5-HT2A
Chain of 5-HT2A (P28223 whole entry): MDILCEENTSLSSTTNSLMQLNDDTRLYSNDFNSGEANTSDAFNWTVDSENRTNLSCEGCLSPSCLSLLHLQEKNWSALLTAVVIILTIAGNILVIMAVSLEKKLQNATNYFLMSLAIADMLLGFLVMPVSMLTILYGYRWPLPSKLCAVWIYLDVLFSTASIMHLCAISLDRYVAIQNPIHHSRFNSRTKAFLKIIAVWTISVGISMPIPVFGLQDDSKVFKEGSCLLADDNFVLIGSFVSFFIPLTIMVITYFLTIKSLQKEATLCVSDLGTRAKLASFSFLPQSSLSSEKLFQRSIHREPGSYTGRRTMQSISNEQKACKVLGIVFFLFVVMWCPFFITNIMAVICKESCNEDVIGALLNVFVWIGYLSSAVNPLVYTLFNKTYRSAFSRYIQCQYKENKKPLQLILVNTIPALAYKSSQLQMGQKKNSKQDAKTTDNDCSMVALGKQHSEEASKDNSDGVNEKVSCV
Experimental: as §1, §2, §3

M1 = molecular target: T2, M1 (Homo sapiens, UniProt P11229); assay: GPCR Calcium Flux assay (FLIPR tetra, Eurofins), M1; details: for inhibition at 10 µM: single concentration of 10 uM, read-out: inhibition rate (%) M1; for IC50: 8 concentrations 10 to 0.0006 uM, read-out: 50% inhibitory concentration (IC50) M1
T2 sequence (P11229 1-460): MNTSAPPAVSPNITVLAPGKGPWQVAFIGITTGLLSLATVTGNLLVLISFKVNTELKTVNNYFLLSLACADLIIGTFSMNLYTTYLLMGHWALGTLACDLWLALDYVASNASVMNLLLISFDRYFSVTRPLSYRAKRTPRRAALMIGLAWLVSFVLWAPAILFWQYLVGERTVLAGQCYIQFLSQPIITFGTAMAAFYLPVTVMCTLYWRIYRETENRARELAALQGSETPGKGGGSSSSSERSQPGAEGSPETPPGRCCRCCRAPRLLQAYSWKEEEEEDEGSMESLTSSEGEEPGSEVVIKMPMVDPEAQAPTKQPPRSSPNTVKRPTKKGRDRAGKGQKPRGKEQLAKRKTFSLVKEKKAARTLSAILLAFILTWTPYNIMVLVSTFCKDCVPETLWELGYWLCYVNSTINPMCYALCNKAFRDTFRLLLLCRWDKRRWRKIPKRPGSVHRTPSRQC
Experimental: as §1, §2, §3

SMILES	inhibition at 10 µM (M2)	inhibition at 10 µM (5-HT2A)	inhibition at 10 µM (M1)	IC50 (M2; 8 concentrations 10 to 0.0006 uM, read-out: 50% inhibitory concentration (IC50) M2)	IC50 (5-HT2A)	IC50 (M1)
CNCc1cn(S(=O)(=O)c2cccc(F)c2)c(-c2c(F)cccc2Cl)c1OC [Example 20, 1-(5-(2-fluoro-6-chlorophenyl)-1-((3-fluorophenyl)sulfonyl)-4-methoxy-1H-pyrrol-3-yl)-N-methylmethanamine hydrochloride]	90.5%	99.2%	103%	–	–	–
CNCc1cn(S(=O)(=O)c2cccc(C(F)(F)F)c2)c(-c2c(F)cc(F)cc2F)c1OC [Example 24, 1-(1-((3-trifluoromethylphenyl)sulfonyl)-4-methoxy-5-(2,4,6-trifluorophenyl)-1H-pyrrol-3-yl)-N-methylmethanamine hydrochloride]	22%	62.2%	93.4%	> 10 µM	0.062 µM	> 1 µM
CNCc1cn(S(=O)(=O)c2ccc(F)c(F)c2)c(-c2c(F)cc(F)cc2F)c1OC [Example 26, 1-(1-((3,4-difluorophenyl)sulfonyl)-4-methoxy-5-(2,4,6-trifluorophenyl)-1H-pyrrol-3-yl)-N-methylmethanamine hydrochloride]	89.2%	99%	101%	–	–	–
CNCc1cn(S(=O)(=O)c2cccc(Cl)c2)c(-c2c(F)ccc(F)c2F)c1OC [Example 28, 1-(1-((3-chlorophenyl)sulfonyl)-4-methoxy-5-(2,3,6-trifluorophenyl)-1H-pyrrol-3-yl)-N-methylmethanamine hydrochloride]	61.9%	97.6%	99.4%	–	0.067 µM	0.55 µM
CNCc1cn(S(=O)(=O)c2cccc(C(F)(F)F)c2)c(-c2c(F)ccc(F)c2F)c1OC [Example 29, 1-(1-((3-trifluoromethylphenyl)sulfonyl)-4-methoxy-5-(2,3,6-trifluorophenyl)-1H-pyrrol-3-yl)-N-methylmethanamine hydrochloride]	19.4%	35.7%	68.4%	–	–	–
CNCc1cn(S(=O)(=O)c2cccc(OC)c2)c(-c2c(F)ccc(F)c2F)c1OC [Example 30, 1-(1-((3-methoxyphenyl)sulfonyl)-4-methoxy-5-(2,3,6-trifluorophenyl)-1H-pyrrol-3-yl)-N-methylmethanamine hydrochloride]	43%	100%	94.3%	–	–	1.4 µM
CNCc1cn(S(=O)(=O)c2cccc(F)c2)c(-c2cc(F)ccc2F)c1OC [Example 31, 1-(5-(2,5-difluorophenyl)-1-((3-fluorophenyl)sulfonyl)-4-methoxy-1H-pyrrol-3-yl)-N-methylmethanamine hydrochloride]	98.6%	101%	100%	–	0.042 µM	0.073 µM
CNCc1cn(S(=O)(=O)c2cccc(C(F)(F)F)c2)c(-c2cc(F)ccc2F)c1OC [Example 32, 1-(5-(2,5-difluorophenyl)-1-((3-trifluoromethylphenyl)sulfonyl)-4-methoxy-1H-pyrrol-3-yl)-N-methylmethanamine hydrochloride]	10.8%	10.6%	52.6%	–	–	–
CNCc1cn(S(=O)(=O)c2cccc(OC)c2)c(-c2cc(F)ccc2F)c1OC [Example 33, 1-(5-(2,5-difluorophenyl)-1-((3-methoxyphenyl)sulfonyl)-4-methoxy-1H-pyrrol-3-yl)-N-methylmethanamine hydrochloride]	29%	96.7%	81.5%	–	1.7 µM	–
